Key:
[1] = molecular target: T1, Human Liver ALP (Homo sapiens, UniProt P05186); assay: Ki of inhibitors for human liver ALP (Table 1); type: biochemical; details: Enzyme: Human Liver
T1 sequence (P05186 18-502 limits assumed): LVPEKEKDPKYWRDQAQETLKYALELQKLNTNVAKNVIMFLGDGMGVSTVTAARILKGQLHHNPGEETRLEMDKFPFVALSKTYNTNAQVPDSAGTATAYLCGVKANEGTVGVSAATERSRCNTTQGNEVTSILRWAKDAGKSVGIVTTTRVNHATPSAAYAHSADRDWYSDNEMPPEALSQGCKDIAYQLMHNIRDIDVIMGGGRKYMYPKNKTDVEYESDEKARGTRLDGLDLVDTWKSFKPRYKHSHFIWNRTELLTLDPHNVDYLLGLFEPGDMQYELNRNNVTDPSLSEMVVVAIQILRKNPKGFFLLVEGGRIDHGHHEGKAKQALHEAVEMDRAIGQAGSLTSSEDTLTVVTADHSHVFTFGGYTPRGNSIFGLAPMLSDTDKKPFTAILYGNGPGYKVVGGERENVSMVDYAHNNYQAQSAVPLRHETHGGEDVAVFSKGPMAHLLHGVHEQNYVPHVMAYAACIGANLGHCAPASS
Excerpt: Another approach to reduce the effects of the human ALPs is to use inhibitors of ALPs in the substrate solution.

[2] = molecular target: T2, ALPs in Sarcoma 180/TG ascites cells (Mus musculus, UniProt P09242); details: J. Med. Chem. 1977, 20: 563-566; cited from earlier work
T2 construct: host or cells: Sarcoma 180/TG ascites cells
T2 sequence (P09242 18-502 limits assumed): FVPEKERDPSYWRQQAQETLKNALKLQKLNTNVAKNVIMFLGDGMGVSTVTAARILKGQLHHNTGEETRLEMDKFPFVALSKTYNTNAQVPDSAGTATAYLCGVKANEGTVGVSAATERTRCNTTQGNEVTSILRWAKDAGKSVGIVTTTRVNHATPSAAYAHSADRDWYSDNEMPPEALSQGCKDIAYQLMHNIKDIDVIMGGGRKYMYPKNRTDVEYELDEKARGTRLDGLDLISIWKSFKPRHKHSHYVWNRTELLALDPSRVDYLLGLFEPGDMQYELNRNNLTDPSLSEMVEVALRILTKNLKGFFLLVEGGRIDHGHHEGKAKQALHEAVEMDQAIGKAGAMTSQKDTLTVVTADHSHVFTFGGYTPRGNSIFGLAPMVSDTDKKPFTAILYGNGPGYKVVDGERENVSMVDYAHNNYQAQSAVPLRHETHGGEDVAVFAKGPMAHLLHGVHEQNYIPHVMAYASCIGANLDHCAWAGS

[3] = test system: endogenous ALP (high molecular weight and/or elevated normal ALP) in patient serum samples; assay: Background signal from endogenous ALP of patient serum samples on Stratus Fluorometric Analyzer, using each substrate/wash composition; parameters: species or system human; details: patient serum Samples 1-3 (FIGS. 1-3); ALP conjugate, 4-MUP substrate; rate in mv/min
Protocol: Three carcinoembryonic antigen (CEA) positive patient serum samples (Samples 1, 2, and 3) were identified as having high molecular weight ALP and/or elevated levels of normal ALP. These samples were tested using the compositions of this invention. The patient samples were evaluated on an automated immunoassay analyzer (the Stratus^R Fluorometric Analyzer from Baxter Diagnostics Inc.) which utilizes an ALP conjugate and a 4-MUP substrate. This automated analyzer combines the wash step with the substrate addition step. See, U.S. Pat. No. 4,517,288. The commercially available substrate composition (XWS) has the dual function of washing the solid phase and initiating the ALP reaction. […]
(§1) The samples were evaluated on the analyzer using each composition as the substrate/wash. […]
Five patient samples, Samples 1, 2, and 3 (as described in Example 1), Sample 4 (which originated from a patient who tested positive for colon cancer) and Sample 5 (which originated from a patient who tested positive for breast cancer) were identified as having high molecular weight ALP and/or elevated levels of normal ALP. These samples were evaluated using the compositions of this invention. The patient samples were evaluated on the automated immunoassay analyzer described in Example 1. […]
as §1

Ki [1] | SMILES | Ki [2] | background signal generated from endogenous ALP / false positive reading [3]
30.3 µM | C1=CN2CC(c3ccc4ccccc4c3)N=C2S1 (stereo not shown) [Naphthyl, 5,6-Dihydro-6-(2-naphthyl)imidazo-[2,1-b]thiazole] | ~1 µM | substantially lowers the background signal
98.5 µM | Brc1ccc([C@H]2CN3CCSC3=N2)cc1 [Bromolevamisole] |  | 

— patent US5948630A, “Method and composition for reducing the effects of endogenous alkaline phosphatase” (Dade Behring Inc., priority 1996, dated 1999)
